The values below come from patent US11001569B2, “6-membered heteroaromatic substituted cyanoindoline derivatives as NIK inhibitors” (Janssen Pharmaceutica NV, priority 2016, dated 2021).

In data set [1] the target is recombinant human NF-kappaB-inducing Kinase (NIK/MAP3K14) (Homo sapiens, UniProt Q99558). Put plainly: Inhibition of auto-phosphorylation of recombinant human NIK/MAP3K14 activity (AlphaScreen). It is filed as biochemical. The conditions noted are these: 25 microM ATP, averaged over all measurements on all batches. How it is done: Pharmacological Part Biological assay A Inhibition of auto-phosphorylation of recombinant human NF-kappaB-inducing Kinase (NIK/MAP3K14) Activity (AlphaScreen®)
NIK/MAP3K14 auto-phosphorylation activity was measured using the AlphaScreen® (αscreen) format (Perkin Elmer). All compounds tested were dissolved in dimethyl sulfoxide (DMSO) and further dilutions were made in assay buffer. Final DMSO concentration was 1% (v/v) in assays. Assay buffer was 50 mM Tris pH 7.5 containing 1 mM EGTA (ethylene glycol tetraacetic acid), 1 mM DTT (dithiothreitol), 0.1 mM Na3VO4, 5 mM MgCl2, 0.01% Tween® 20. Assays were carried out in 384 well Alphaplates (Perkin Elmer). […] Incubations were initiated by addition of GST-tagged NIK/MAP3K14 enzyme, carried out for 1 h at 25° C. and terminated by addition of stop buffer containing anti-phospho-IKK Ser176/180 antibody. Protein A Acceptor and Glutathione-Donor beads were added before reading using an EnVision® Multilabel Plate Reader (Perkin Elmer). Signal obtained in the wells containing blank samples was subtracted from all other wells and IC50's were determined by fitting a sigmoidal curve to % inhibition of control versus Log10 compound concentration.
A general note: Bead proximity is the source of the signal in Alpha formats.

The subject of data set [2] is JJN-3 (NIK translocated) multiple myeloma cells. Put plainly: Antiproliferative activity on JJN-3 multiple myeloma cells (CellTiter-Glo). In kind it is cell-based, human. Conditions: Homo sapiens, JJN-3, 96 h, JJN-3 (NIK translocated) cells, 96 hr treatment, averaged values, read-out: JJN-3 Proliferation inhibition (IC50 (nM)). How it is done: (§1) Determination of Antiproliferative Activity on JJN-3 (NIK Translocated) and KMS12-BM (NIK WT) Multiple Myeloma Cells
(§2) All compounds tested were dissolved in DMSO and further dilutions were made in culture medium. Final DMSO concentration was 0.3% (v/v) in cell proliferation assays. Viability was assessed using CellTiter-Glo cell viability assay kit (Promega). […] Cells were routinely kept as suspension cells at 37° C. in a humidified 5% CO2 atmosphere. Cells were passaged at a seeding density of 0.2×10^6/ml twice a week. Cells were seeded in black tissue culture treated 96-well plates (Perkin Elmer). Densities used for plating ranged from 15000 (JJN3) to 20000 (KMS12BM) cells per well in a total volume of 135 μl medium. Drugs and/or solvents were added (15 μl) to a final volume of 150 μl. Following 96 hr of treatment, plates were removed from the incubator and allowed to equilibrate to room temperature for approx 10 min. 75 μl CellTiter-Glo reagent was added to each well that was then covered (Perkin Elmer Topseal) and shaken on plate shaker for 10 min. Luminescence was measured on a HTS Topcount (Perkin Elmer). […] For initial screening purposes, compounds were tested using a 9 point dilution curve (serial 1:3 dilutions). For each experiment, controls (containing no drug) and a blank incubation (containing cells read at the time of compound addition) were run in parallel. The blank value was subtracted from all control and sample values. For each sample, the mean value for cell growth (in relative light units) was expressed as a percentage of the mean value for cell growth of the control.

Data set [3] deals with KMS12-BM (NIK WT) multiple myeloma cells. Put plainly: Antiproliferative activity on KMS12-BM multiple myeloma cells (CellTiter-Glo). The conditions noted are these: Homo sapiens, KMS-12-BM, 96 h, 96 hr treatment, averaged values, read-out: KMS-12 Proliferation inhibition (IC50 (nM)). It is filed as cell-based, human. How it is done: as §1, §2
(In general: ATP-based viability assays read luminescence as a measure of living cells.)

Molecules are shown by their SMILES. Values joined by “and” are separate entries in the source; they are usually repeats but may differ in a detail not shown here. Identical values can stand only once.

recombinant human NF-kappaB-inducing Kinase (NIK/MAP3K14), sequence (Q99558 whole entry): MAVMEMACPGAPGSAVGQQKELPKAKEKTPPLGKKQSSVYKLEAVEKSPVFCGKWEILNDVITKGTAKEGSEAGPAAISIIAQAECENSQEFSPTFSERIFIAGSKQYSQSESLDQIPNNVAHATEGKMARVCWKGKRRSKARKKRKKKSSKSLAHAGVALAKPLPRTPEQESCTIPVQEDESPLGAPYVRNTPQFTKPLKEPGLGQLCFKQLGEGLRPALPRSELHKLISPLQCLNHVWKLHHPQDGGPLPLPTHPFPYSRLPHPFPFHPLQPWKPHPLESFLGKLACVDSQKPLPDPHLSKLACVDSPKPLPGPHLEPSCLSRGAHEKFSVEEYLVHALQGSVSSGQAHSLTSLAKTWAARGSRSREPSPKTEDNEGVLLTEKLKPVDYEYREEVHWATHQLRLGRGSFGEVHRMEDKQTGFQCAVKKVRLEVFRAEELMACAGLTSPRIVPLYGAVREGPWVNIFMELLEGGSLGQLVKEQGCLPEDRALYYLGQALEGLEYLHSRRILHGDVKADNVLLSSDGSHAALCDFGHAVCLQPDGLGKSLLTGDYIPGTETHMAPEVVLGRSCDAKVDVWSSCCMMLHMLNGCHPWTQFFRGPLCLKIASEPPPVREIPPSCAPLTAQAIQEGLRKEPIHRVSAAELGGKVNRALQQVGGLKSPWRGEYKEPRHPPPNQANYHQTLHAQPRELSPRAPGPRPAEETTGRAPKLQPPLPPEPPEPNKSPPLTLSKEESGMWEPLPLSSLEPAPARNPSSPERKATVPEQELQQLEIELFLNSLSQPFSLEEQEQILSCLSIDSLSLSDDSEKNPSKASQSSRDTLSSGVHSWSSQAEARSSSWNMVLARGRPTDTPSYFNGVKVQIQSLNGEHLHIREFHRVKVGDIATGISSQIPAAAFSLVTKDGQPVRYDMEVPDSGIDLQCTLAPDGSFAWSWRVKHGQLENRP

In general, melting point refers to the temperature of the solid-liquid transition. With `COc1ncc(Cl)cc1Nc1nccc(-c2cc(C#N)c3c(c2)C(C)(COCCN2CCOCC2)CN3)n1` (stereo not drawn) [Compound 121], the melting point came out at 104 °C. The IC50 in data set [1] turned out to be 117 nM. For the same compound, the IC50 in data set [2] was determined as 1410 nM. Moreover, in data set [3], the IC50 was 2510 nM.
For the compound `COc1cnccc1Nc1nccc(-c2cc(C#N)c3c(c2)[C@@](C)(CO)CN3)n1` [Compound 20], the melting point is above 260 °C. For the same compound, the IC50 in data set [1] was 0.9 nM. Besides, the IC50 in data set [2] turned out to be 1580 nM. The IC50 in data set [3] was above 10000 nM.
Compound `CC(C)OCCOc1ncccc1Nc1nccc(-c2cc(C#N)c3c(c2)[C@@](C)(CO)CN3)n1` [Compound 19] came in with a melting point of 154 °C. Further, the IC50 in data set [1] was 14.5 nM. The IC50 in data set [2] came out at 912 nM. Also, in data set [3], the IC50 is above 10000 nM.
The corresponding values for `COc1ccncc1Nc1nccc(-c2cc(C#N)c3c(c2)[C@@](C)(CO)CN3)n1` [Compound 37] are 210 °C, 1.8 nM, 3470 nM and above 10000 nM.
`COc1ncccc1Nc1nccc(-c2cc(C#N)c3c(c2)C(C)(CN2CCNCC2)CN3)n1` (stereo not drawn) [Compound 111] gave a melting point of 220 °C. The IC50 in data set [1] was determined as 14.8 nM. Further, the IC50 in data set [2] amounted to 669 nM. The IC50 in data set [3] amounted to 3160 nM.
Consider `COc1ncc(Cl)cc1Nc1ncc(F)c(-c2cc(C#N)c3c(c2)[C@@](C)(CO)CN3)n1` [Compound 104], for which the melting point is above 250 °C. The IC50 in data set [1] was determined as 11.2 nM. In addition, in data set [2], the IC50 was 112 nM. The IC50 in data set [3] was above 10000 nM.
The corresponding values for `COCCOc1ncccc1Nc1nccc(-c2cc(C#N)c3c(c2)[C@](C)(CO)CN3)n1` [Compound 34] are 152 °C, 38 nM, 2880 nM and above 10000 nM.
Take `COCCN(C)c1nc(OC)c(Nc2nccc(-c3cc(C#N)c4c(c3)[C@@](C)(CO)CN4)n2)cc1Cl` [Compound 38]: the melting point stood at 215 °C. Also, in data set [1], the IC50 worked out at 19.5 nM. Moreover, the IC50 in data set [2] is 79 nM. Besides, the IC50 in data set [3] is above 10000 nM.
For `COCCOc1nc(C)ncc1Nc1nccc(-c2cc(C#N)c3c(c2)[C@@](C)(CO)CN3)n1` [Compound 136] the same measures were 231 °C, 18.2 nM, 2000 nM and above 10000 nM.
With `Cc1ncc(Cl)cc1Nc1nccc(-c2cc(C#N)c3c(c2)C(C)(CO)CN3)n1` (stereo not drawn) [Compound 4], the melting point was 277 °C and 280 °C. Also, the IC50 in data set [1] stood at 3.6 nM. Also, the IC50 in data set [2] is 97 nM. The IC50 in data set [3] was around 7410 nM.
The compound `COc1nc(C2CCOCC2)ccc1Nc1nccc(-c2cc(C#N)c3c(c2)[C@@](C)(CO)CN3)n1` [Compound 44] registered a melting point of 217 °C. The IC50 in data set [1] worked out at 9.3 nM. In data set [2], the IC50 came out at 81 nM. Further, the IC50 in data set [3] is above 10000 nM.
The corresponding values for `COc1ncccc1Nc1nccc(-c2cc(C#N)c3c(c2)C(C)(CNCCS(C)(=O)=O)CN3)n1` (stereo not drawn) [Compound 112] are 146 °C, 22.9 nM, 1820 nM and above 10000 nM.
Compound `C[C@]1(CO)CNc2c(C#N)cc(-c3ccnc(Nc4cccnc4O[C@H]4CCCOC4)n3)cc21` [Compound 26] displayed a melting point of 155 °C. Further, the IC50 in data set [1] came to 4.1 nM. For the same compound, the IC50 in data set [2] came out at 794 nM. In addition, the IC50 in data set [3] was above 10000 nM.
The corresponding values for `COc1nc(C)ncc1Nc1nccc(-c2cc(C#N)c3c(c2)[C@@](C)(CO)CN3)n1` [Compound 129] are 223 °C, 1.8 nM, 562 nM and above 10000 nM.
For `COc1ncc(Cl)cc1Nc1nccc(-c2cc(C#N)c3c(c2)C(C)(COCCN2CCCC2)CN3)n1` (stereo not drawn) [Compound 120] the same measures were 152 °C, 79.4 nM, 631 nM and 1230 nM.
